Earlier results, collected in patent publication US5013557A, “Taste masking compositions comprising spray dried microcapsules containing sucralfate and methods for preparing same” (Warner-Lambert Company, priority 1989, dated 1991).

What was measured:
[1] = system: EGF; details: in vivo
[2] = pH values below about 3.5
[3] = system: pepsin; details: gel-like mass at ulcer site
[4] = system: peptic ulcers; details: in vivo
[5] = system: mucosa
[6] = sulfated disaccharide
[7] = system: ulcerated mucosa

In the case of “alpha-D-glucopyranoside, beta-D-fructofuranosyl-, octakis-(hydrogen sulfate), aluminum complex [sucralfate]”, the “EGF remaining in the stomach” value [1] is given as “enable EGF to remain in the stomach at a high concentration”, the “Coagulation / gel formation” value [2] is given as “coagulates to form a gel-like mass” and the “Effect of barrier on back diffusion of gastric acid” value (across the sucralfate protein barrier) is given as “blocks back diffusion of gastric acid”. For the same substance, the “Effect of barrier on diffusion of hydrogen ions” value (protein barrier bound to ulcer site) was “blocks diffusion of hydrogen ions”, the “Effect of protein barrier on bile salts and pepsin” value [3] was “adsorbs bile salts and inhibits the potential ulcerogenic properties of pepsin” and the “Healing of peptic ulcers” value [4] was “accelerates the healing of peptic ulcers”. The “Morphological and functional changes in the mucosa” value [5] was “mucus release, changes in ion transport and increased release and synthesis of prostaglandins”, the “Absorption from the gastrointestinal tract” value [6] was “not absorbed from the gastrointestinal tract” and the “Affinity for ulcerated mucosa versus non-ulcerated mucosa” value [7] was “greater affinity for ulcerated mucosa than for non-ulcerated mucosa”.
